Test results as given in paper PMC11605732, “In vitro screening of UGT2B10 in silico prioritized putative ligands from drugs used in the pediatric hematopoietic stem cell transplantation setting” (Pharmacology Research & Perspectives, 2024).
Like-named read-outs stand apart in the source and are kept apart here.

Experiments:
UGT2B10 [1] = target: T1, UGT2B10 (Homo sapiens, UniProt P36537); test: inhibition of cotinine N-glucuronidation at […], UHPLC-MS/MS; format: biochemical; details: read-out: % inhibition at 10 μM
T1 construct: recombinant UGT2B10
T1 sequence (P36537 24-528): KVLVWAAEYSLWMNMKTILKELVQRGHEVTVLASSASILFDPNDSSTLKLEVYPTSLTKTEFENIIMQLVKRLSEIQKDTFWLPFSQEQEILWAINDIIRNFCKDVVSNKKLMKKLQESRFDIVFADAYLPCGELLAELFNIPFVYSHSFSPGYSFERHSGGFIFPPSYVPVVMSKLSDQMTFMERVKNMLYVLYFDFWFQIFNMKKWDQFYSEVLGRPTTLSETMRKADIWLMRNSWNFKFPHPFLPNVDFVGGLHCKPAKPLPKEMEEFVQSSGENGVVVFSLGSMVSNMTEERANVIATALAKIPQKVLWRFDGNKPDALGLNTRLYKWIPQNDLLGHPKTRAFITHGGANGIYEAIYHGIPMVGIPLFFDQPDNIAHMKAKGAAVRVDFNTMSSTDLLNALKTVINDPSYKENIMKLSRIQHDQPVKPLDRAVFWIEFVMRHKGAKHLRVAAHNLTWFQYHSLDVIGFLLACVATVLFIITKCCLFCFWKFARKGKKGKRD

UGT1A6 = target: T2, UGT1A6 (Homo sapiens, UniProt P19224); test: glucuronide formation by recombinant enzyme, UHPLC-MS/MS; format: biochemical
T2 construct: recombinant UGT1A6
T2 sequence (P19224 27-532): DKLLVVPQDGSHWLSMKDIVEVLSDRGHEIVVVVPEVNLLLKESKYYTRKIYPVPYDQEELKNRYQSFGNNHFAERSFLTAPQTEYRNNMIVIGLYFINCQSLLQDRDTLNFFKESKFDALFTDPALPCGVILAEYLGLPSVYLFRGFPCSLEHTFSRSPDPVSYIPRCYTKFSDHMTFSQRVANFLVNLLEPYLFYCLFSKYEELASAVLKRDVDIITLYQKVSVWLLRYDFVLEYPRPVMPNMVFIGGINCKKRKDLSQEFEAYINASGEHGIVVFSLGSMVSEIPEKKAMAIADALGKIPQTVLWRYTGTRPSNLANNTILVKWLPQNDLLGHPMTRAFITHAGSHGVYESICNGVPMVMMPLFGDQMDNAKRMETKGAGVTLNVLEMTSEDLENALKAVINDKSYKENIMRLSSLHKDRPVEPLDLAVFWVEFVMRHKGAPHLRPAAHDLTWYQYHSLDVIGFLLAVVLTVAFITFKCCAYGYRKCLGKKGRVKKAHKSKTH

UGT2B10 [2] = target: T1, UGT2B10; test: inhibition of cotinine N-glucuronidation by recombinant enzyme, UHPLC-MS/MS; format: biochemical
purified protein = substrate: CN1C(=O)CC[C@H]1c1cccnc1; test: purified protein; details: UDPGA; MgCl2

CN(C)CCC=C1c2ccccc2CCc2ccccc21 [AMT, amitriptyline]
inhibition at 10 µM (UGT2B10 [1]): 97.5%

CC(=O)Nc1ccc(O)cc1 [APAP, acetaminophen]
glucuronide formation by recombinant enzyme, UHPLC-MS/MS (UGT1A6): incubations of APAP and MPA with UGT1A6 produced APAP‐glucuronide and MPA‐ß‐D‐glucuronide, respectively

O=C1Nc2ccc(Cl)cc2C(c2ccccc2Cl)=NC1O (stereo not drawn) [LOR, lorazepam]
IC50 (UGT2B10 [2]): 0.01 µM

COc1c(C)c2c(c(O)c1C/C=C(\C)CCC(=O)O)C(=O)OC2 [MPA, mycophenolic acid]
IC50 (UGT2B10 [2]; read-out: IC50): 380 µM | glucuronide formation by recombinant enzyme, UHPLC-MS/MS (UGT1A6): incubations of APAP and MPA with UGT1A6 produced APAP‐glucuronide and MPA‐ß‐D‐glucuronide, respectively

B1: UGT2B10 (Homo sapiens) (protein)
chain: T1 sequence (P36537 24-528)
Km (purified protein): 4.043 mM
